Experimental data published in publication PMC6900016, “Synthesis of Indomorphan Pseudo‐Natural Product Inhibitors of Glucose Transporters GLUT‐1 and ‐3” (Angewandte Chemie (International Ed. in English), 2019).

The compounds below were run on HCT116 (assay: cells). Settings: Homo sapiens, HCT-116, 0.5 h; 2DG uptake.
Design: 2-deoxyglucose uptake inhibition, semi-automated resazurin/diaphorase fluorescence read-out of 2DG6P
Method: Resazurin-based 2DG uptake assay (semi-automated high throughput) All buffers, reagents and steps were identical with those described for the manual screening Washing and [compound left out] addition steps were done using an automated cell washer or a multidrop device, respectively. Screening was performed in a 384-well plates. 15,000 HCT116 cells/well seeded into 384-well black-walled, clear bottomed plates (CellBIND, Corning) and incubated overnight. Compounds were added at 30 µM (final concentration for screening or serial dilutions staring from 30 µM for IC50 determinations) from DMSO stocks using the acoustic nanoliter dispenser ECHO 520. Fluorescence intensity was read from the bottom with a SpectraMax Paradigm Multi-Mode Microplate Reader (Molecular devices) using SUPPORTING INFORMATION 259 control (which was set to 100 %) and cells without 2DG (set to 0 %) using Graph Pad Prism 5 or 6 software and IC50 values were determined using a four-parameter fit. The observed difference in the obtained IC50 values for Glupin in the automated screening vs. manually performed assay is most likely attributed to the minituarization that is required for high-troughput screening and usually requires different plate format (384 vs. 96-well plates) and different cell number. In this case, the automated assay was performed in 384-well plates (vs. 96-well plates for the manual assay) with 15,000 cells per well (vs. 40,000 cells per well in the 96-well plates). For kinetic measurements, 15,000 cells were seeded into black CellBIND 384-well plates (Corning) and allowed to attach overnight. Then, the plates were washed 3X with KRB buffer containing 0.1%BSA and treated with different concentrations of 2DG (0-60mM) and Glupin (0-1µM) for 30s to 30min. The uptake was determined using the resazurin/diaphorase system as described above. 2DG uptake was stopped by aspirating the 2DG solution followed by quick wash with ice-cold KRB buffer (0.1 % BSA). Km and Vmax were determined by fitting the data according to Michaelis-Menten using non-linear fitting. The glucose uptake assay monitored the inhibition of 2‐deoxyglucose (2DG) uptake as described by Yamamoto et al.25 Briefly, 2DG uptake is determined by quantification of the 2DG‐6‐phosphate (2DG6P) that accumulates inside the cells by using the diaphorase‐resazurin/‐resorufin system (see Figure S7 a).

| IC50 | SMILES |
| --- | --- |
| 8600 ± 4000 nM | CCOC(=O)Cn1c2c(c3ccccc31)CC1CC2C(OC)CN1C(=O)c1ccc(C)o1 (racemic) [5at, (±)-Ethyl 2-(5-methoxy-3-(5-methylfuran-2-carbonyl)-1,2,3,4,5,6-hexahydro-7H-2,6-methanoazocino[5,4-b]indol-7-yl)acetate] |
| 120 ± 30 nM | CCOC(=O)Cn1c2c(c3ccccc31)CC1CC2C(OC)CN1C(=O)c1cccnc1C(F)(F)F (racemic) [5w, (±)-Ethyl 2-(5-methoxy-3-(2-(trifluoromethyl)nicotinoyl)-1,2,3,4,5,6-hexahydro-7H-2,6-methanoazocino[5,4-b]indol-7-yl)acetate] |
| 230 ± 50 nM | CCOC(=O)Cn1c2c(c3ccccc31)CC1CC2C(OC)CN1C(=O)c1cccnc1OC (racemic) [5v, (±)-Ethyl 2-(5-methoxy-3-(2-methoxynicotinoyl)-1,2,3,4,5,6-hexahydro-7H-2,6-methanoazocino[5,4-b]indol-7-yl)acetate] |
| 93 ± 41 nM | CCOC(=O)Cn1c2c(c3ccccc31)CC1CC2C(OC)CN1C(=O)c1cccnc1Cl (racemic) [5af, (±)-Ethyl 2-(3-(2-chloronicotinoyl)-5-methoxy-1,2,3,4,5,6-hexahydro-7H-2,6-methanoazocino[5,4-b]indol-7-yl)acetate] |
| 220 ± 70 nM | CCOC(=O)Cn1c2c(c3ccccc31)CC1CC2C(OC)CN1C(=O)c1cccnc1OCC (racemic) [5ak, (±)-Ethyl 2-(3-(2-ethoxynicotinoyl)-5-methoxy-1,2,3,4,5,6-hexahydro-7H-2,6-methanoazocino[5,4-b]indol-7-yl)acetate] |
| 190 ± 60 nM | COC1CN(C(=O)c2cccnc2SC)C2Cc3c(n(CC(=O)OC(C)(C)C)c4ccccc34)C1C2 (racemic) [5k, (±)-tert-butyl 2-(5-methoxy-3-(2-(methylthio)nicotinoyl)-3,4,5,6-tetrahydro-1H-2,6-methanoazocino[5,4-b]indol-7(2H)-yl)acetate] |
| 100 ± 60 nM | CCOC(=O)Cn1c2c(c3cc(O)ccc31)CC1CC2C(OC)CN1C(=O)c1cccnc1SC (racemic) [5f, (±)-Ethyl 2-(-10-hydroxy-5-methoxy-3-(2-(methylthio)nicotinoyl)-1,2,3,4,5,6-hexahydro-7H-2,6-methanoazocino[5,4-b]indol-7-yl)acetate] |
| 6700 ± 2400 nM | COC1CN(C(=O)c2cccnc2SC)C2Cc3c(n(Cc4ccco4)c4ccccc34)C1C2 (racemic) [5o, (±)-(7-(furan-2-ylmethyl)-5-methoxy-5,6-dihydro-1H-2,6-methanoazocino[5,4-b]indol-3(2H,4H,7H)-yl)(2-(methylthio)pyridin-3-yl)methanone] |
| > 30000 nM | CCOC(=O)Cn1c2c(c3ccccc31)CC1CC2C(OC)CN1C(=O)c1cccnc1NC(=O)C(C)(C)C (racemic) [5am, (±)-Ethyl 2-(5-methoxy-3-(2-pivalamidonicotinoyl)-1,2,3,4,5,6-hexahydro-7H-2,6-methanoazocino[5,4-b]indol-7-yl)acetate] |
| 89 ± 32 nM | COC(=O)Cn1c2c(c3ccccc31)CC1CC2C(OC)CN1C(=O)c1cccnc1SC (racemic) [5ad, (±)-methyl 2-(5-methoxy-3-(2-(methylthio)nicotinoyl)-3,4,5,6-tetrahydro-1H-2,6-methanoazocino[5,4-b]indol-7(2H)-yl)acetate] |
| 1400 ± 200 nM | CCOC(=O)Cn1c2c(c3ccccc31)CC1CC2C(OC)CN1C(=O)c1cccnc1N1CCOCC1 (racemic) [5al, (±)-Ethyl 2-(5-methoxy-3-(2-morpholinonicotinoyl)-1,2,3,4,5,6-hexahydro-7H-2,6-methanoazocino[5,4-b]indol-7-yl)acetate] |
| > 30000 nM | COC1CN(C(=O)c2cccnc2SC)C2Cc3c([nH]c4ccccc34)C1C2 (racemic) [5j, (±)-(5-methoxy-1,2,4,5,6,7-hexahydro-3H-2,6-methanoazocino[5,4-b]indol-3-yl)(2-(methylthio)pyridin-3-yl)methanone] |
| > 30000 nM | CNC(=O)Cn1c2c(c3ccccc31)CC1CC2C(OC)CN1C(=O)Nc1cccc(C(F)(F)F)c1 (stereo not drawn) [5az] |
| 2000 ± 400 nM | CCOC(=O)Cn1c2c(c3ccccc31)CC1CC2C(OC)CN1C(=O)c1cnccn1 (stereo not drawn) [5aw] |

| SMILES | IC50 |
| --- | --- |
| CCOC(=O)Cn1c2c(c3ccccc31)CC1CC2C(OC(C)=O)CN1C(=O)c1cccnc1SC (racemic) [5b, (±)-Ethyl 2-(5-acetoxy-3-(2-(methylthio)nicotinoyl)-1,2,3,4,5,6-hexahydro-7H-2,6-methanoazocino[5,4-b]indol-7-yl)acetate] | 53 ± 23 nM |
